# Assays:
# human OX1 receptors = target: T1, human OX1 receptors (Homo sapiens, UniProt O43613); assay: Antagonistic activity against human OX1 receptor, [Ca2+]i fluorimetry (Fluo-4NW) in transfected CHO cells activated with orexin-A; assay type: cell-based; settings: CHO cells transfected with human recombinant OX1; orexin-A 3 nM; pKb = co-logarithm of apparent dissociation constant, modified Cheng Prusoff
# T1 construct: expressed in transfected cells; host or cells: CHO cells
# T1 sequence (O43613 1-425): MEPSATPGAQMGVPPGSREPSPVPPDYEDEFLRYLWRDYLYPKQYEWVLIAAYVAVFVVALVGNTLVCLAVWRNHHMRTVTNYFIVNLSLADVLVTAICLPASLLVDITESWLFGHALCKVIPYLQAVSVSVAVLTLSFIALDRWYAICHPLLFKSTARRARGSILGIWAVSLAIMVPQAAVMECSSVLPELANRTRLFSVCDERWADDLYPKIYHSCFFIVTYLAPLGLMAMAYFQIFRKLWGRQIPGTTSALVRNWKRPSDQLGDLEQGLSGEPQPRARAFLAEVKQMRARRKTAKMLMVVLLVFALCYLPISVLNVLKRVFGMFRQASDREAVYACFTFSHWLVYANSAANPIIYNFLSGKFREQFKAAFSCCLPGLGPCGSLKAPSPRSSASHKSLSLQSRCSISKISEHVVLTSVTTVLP
# Summary of the method: (§1)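 Fluo-4NW-loaded cells were preincubated with compound (1 nM–1 μM, 0.3% DMSO, duplicates) for 5 min at 22 °C, then stimulated with 3 nM orexin-A (OX1, CHO) or 10 nM orexin-B (OX2, HEK-293), and [Ca2+]i was read fluorimetrically. IC50 came from Hill-equation fitting, averaged over ≥2 experiments, and was converted to pKb by modified Cheng-Prusoff.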
# human OX2 receptors = target: T2, human OX2 receptors (Homo sapiens, UniProt O43614); assay: Antagonistic activity against human OX2 receptor, [Ca2+]i fluorimetry (Fluo-4NW) in transfected HEK-293 cells activated with orexin-B; assay type: cell-based; settings: HEK-293 cells transfected with human recombinant OX2; orexin-B 10 nM; pKb = co-logarithm of apparent dissociation constant, modified Cheng Prusoff
# T2 construct: expressed in transfected cells; host or cells: HEK-293 cells
# T2 sequence (O43614 1-444): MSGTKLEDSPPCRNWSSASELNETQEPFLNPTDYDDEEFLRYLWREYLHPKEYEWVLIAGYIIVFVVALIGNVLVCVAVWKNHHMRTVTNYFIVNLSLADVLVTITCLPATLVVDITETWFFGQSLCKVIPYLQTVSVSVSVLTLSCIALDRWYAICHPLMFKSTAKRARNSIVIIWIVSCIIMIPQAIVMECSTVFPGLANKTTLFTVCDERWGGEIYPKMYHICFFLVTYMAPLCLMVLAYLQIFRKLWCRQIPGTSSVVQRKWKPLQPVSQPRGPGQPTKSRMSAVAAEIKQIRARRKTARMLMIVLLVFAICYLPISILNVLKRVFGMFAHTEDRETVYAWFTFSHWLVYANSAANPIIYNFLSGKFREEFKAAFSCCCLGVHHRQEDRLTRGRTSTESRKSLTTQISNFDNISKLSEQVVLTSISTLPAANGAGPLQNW
# Summary of the method: as §1
Kb (human OX1 receptors) [nM],Kb (human OX2 receptors) [nM],SMILES
2.51,10,"Cc1ccc(-c2nccs2)c(C(=O)N2CC3(CC3)C[C@H]2CNc2ccc(C(F)(F)F)cn2)n1 [Compound 3q, (S)-(6-methyl-3-(thiazol-2-yl)pyridin-2-yl)(6-(((5-(trifluoromethyl)pyridin-2-yl)amino)methyl)-5-azaspiro[2.4]heptan-5-yl)methanone]"
0.631,25.1,"Cc1ccc(-c2ncccn2)c(C(=O)N2CC3(CC3)C[C@H]2CNc2nc3ccccc3o2)n1 [Compound E9, (S)-(6-((benzo[d]oxazol-2-ylamino)methyl)-5-azaspiro[2.4]heptan-5-yl)(6-methyl-3-(pyrimidin-2-yl)pyridin-2-yl)methanone]"
6.31,39.8,"Cc1ccc(-c2ncccn2)c(C(=O)N2CC3(CC3)C[C@H]2CNc2ncc(Cl)cc2F)n1 [Compound 3c, (S)-(6-(((5-chloro-3-fluoropyridin-2-yl)amino)methyl)-5-azaspiro[2.4]heptan-5-yl)(6-methyl-3-(pyrimidin-2-yl)pyridin-2-yl)methanone]"
6.31,39.8,"Cc1ccc(-c2ncccn2)c(C(=O)N2CC3(CC3)C[C@H]2CNc2cnc(C(F)(F)F)cn2)n1 [Compound 3h, (S)-(6-methyl-3-(pyrimidin-2-yl)pyridin-2-yl)(6-(((5-(trifluoromethyl)pyrazin-2-yl)amino)methyl)-5-azaspiro[2.4]heptan-5-yl)methanone]"
25.1,7.94,"Cc1ccc(OCc2cccc(F)c2F)c(C(=O)N2CC3(CC3)C[C@H]2CNc2ccc(C(F)(F)F)cn2)n1 [Compound 3l, (S)-(3-((2,3-difluorobenzyl)oxy)-6-methylpyridin-2-yl)(6-(((5-(trifluoromethyl)pyridin-2-yl)amino)methyl)-5-azaspiro[2.4]heptan-5-yl)methanone]"
3.16,20,"O=C(c1cc(Br)ccc1-c1ncccn1)N1CC2(CC2)C[C@H]1CNc1ccc(C(F)(F)F)cn1 [Compound 1e, (S)-(5-bromo-2-(pyrimidin-2-yl)phenyl)(6-(((5-(trifluoromethyl)pyridin-2-yl)amino)methyl)-5-azaspiro[2.4]heptan-5-yl)methanone]"
0.794,2.51,"Cc1nc(C(=O)N2CC3(CC3)C[C@H]2CNc2nc3ccccc3o2)c(-c2ccccc2)s1 [Compound 2b, (S)-(6-((benzo[d]oxazol-2-ylamino)methyl)-5-azaspiro[2.4]heptan-5-yl)(2-methyl-5-phenylthiazol-4-yl)methanone]"
15.8,200,"O=C(c1cc(Cl)ccc1-c1ncccn1)N1CC2(CC2)C[C@H]1CNc1ncc(C(F)(F)F)cn1 [Compound 1u, (S)-(5-chloro-2-(pyrimidin-2-yl)phenyl)(6-(((5-(trifluoromethyl)pyrimidin-2-yl)amino)methyl)-5-azaspiro[2.4]heptan-5-yl)methanone]"
